ChEMBL document CHEMBL2074415, “Expression and characterization of a functional rat liver Na+ bile acid cotransport system in COS-7 cells” (Am J Physiol, 1994)

Assays:
Type in all cases: functional, cell-based
Conditions in all cases: monkey, cos-7, 100 µM
[1] = molecular target: T1, Hepatic sodium/bile acid cotransporter (Rattus norvegicus, UniProt P26435); experiment: TP_TRANSPORTER: inhibition of Taurocholate uptake (Taurocholate: 5 uM, CDCA: 100 uM) in Ntcp-expressing COS-7 cells
T1 sequence (P26435 whole entry): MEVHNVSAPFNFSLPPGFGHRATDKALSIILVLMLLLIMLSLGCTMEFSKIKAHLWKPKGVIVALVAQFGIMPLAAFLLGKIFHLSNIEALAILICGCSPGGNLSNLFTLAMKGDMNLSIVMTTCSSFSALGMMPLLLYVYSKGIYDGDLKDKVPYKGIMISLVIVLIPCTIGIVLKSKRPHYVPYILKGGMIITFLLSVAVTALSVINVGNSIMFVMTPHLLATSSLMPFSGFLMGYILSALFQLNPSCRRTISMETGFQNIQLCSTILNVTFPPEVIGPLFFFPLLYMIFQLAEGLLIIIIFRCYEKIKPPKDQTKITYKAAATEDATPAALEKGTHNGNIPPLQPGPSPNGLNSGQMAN

[2] = molecular target: T1, Hepatic sodium/bile acid cotransporter; experiment: TP_TRANSPORTER: inhibition of Taurocholate uptake (Taurocholate: 5 uM, TUDC: 100 uM) in Ntcp-expressing COS-7 cells
[3] = molecular target: T1, Hepatic sodium/bile acid cotransporter; experiment: TP_TRANSPORTER: inhibition of Taurocholate uptake (Taurocholate: 5 uM, UDCA: 100 uM) in Ntcp-expressing COS-7 cells

C[C@H](CCC(=O)O)[C@H]1CC[C@H]2[C@@H]3[C@H](O)C[C@@H]4C[C@H](O)CC[C@]4(C)[C@H]3CC[C@]12C [CHENODIOL]
Activity [1]: inhibitor [(at a rough estimate) 25 % of control]

C[C@H](CCC(=O)NCCS(=O)(=O)O)[C@H]1CC[C@H]2[C@@H]3[C@@H](O)C[C@@H]4C[C@H](O)CC[C@]4(C)[C@H]3CC[C@]12C [TAURURSODIOL]
Activity [2]: inhibitor [(at a rough estimate) 25 % of control]

C[C@H](CCC(=O)O)[C@H]1CC[C@H]2[C@@H]3[C@@H](O)C[C@@H]4C[C@H](O)CC[C@]4(C)[C@H]3CC[C@]12C [URSODIOL]
Activity [3]: inhibitor [(at a rough estimate) 45 % of control]
